Columns and labels:
Test in all cases: cells
Conditions in all cases: Homo sapiens
UACC-257 = format: functional, cell-based
Description: SANGER: Inhibition of human UACC-257 cell growth in a cell viability assay.

SK-PN-DW = format: functional, cell-based;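 further: growth inhibition measured with a viability assay on these cells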
Description: SANGER: Inhibition of human SK-PN-DW cell growth in a cell viability assay.

CAS-1 = format: functional, cell-based;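 further: growth inhibition of CAS-1 cells, measured with a cell viability assay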
Description: SANGER: Inhibition of human CAS-1 cell growth in a cell viability assay.

MHH-NB-11 = format: functional, cell-based;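 further: growth inhibition of human MHH-NB-11 cells, read out by a cell viability assay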
Description: SANGER: Inhibition of human MHH-NB-11 cell growth in a cell viability assay.

LAMA-84 = format: functional, cell-based;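 further: growth inhibition of LAMA-84 cells, read out with a cell viability assay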
Description: SANGER: Inhibition of human LAMA-84 cell growth in a cell viability assay.

SNU-5 = format: functional, cell-based;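 further: cell viability readout used to measure growth inhibition in human NCI-SNU-5 cells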
Description: SANGER: Inhibition of human NCI-SNU-5 cell growth in a cell viability assay.

NB69 = format: functional, cell-based;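 further: growth inhibition of NB69 cells, determined by a cell viability assay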
Description: SANGER: Inhibition of human NB69 cell growth in a cell viability assay.

MEG-01 = format: functional, cell-based;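 further: growth inhibition of MEG-01 cells, read out by a cell viability assay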
Description: SANGER: Inhibition of human MEG-01 cell growth in a cell viability assay.

ONS-76 = format: functional, cell-based;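 further: growth inhibition of human ONS-76 cells, read out with a cell viability assay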
Description: SANGER: Inhibition of human ONS-76 cell growth in a cell viability assay.

NCI-H747 = format: functional, cell-based;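 further: growth inhibition of human NCI-H747 cells, read out by a cell viability assay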
Description: SANGER: Inhibition of human NCI-H747 cell growth in a cell viability assay.

HCC1187 = format: functional, cell-based;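 further: growth inhibition of HCC1187 cells, read out with a cell viability assay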
Description: SANGER: Inhibition of human HCC1187 cell growth in a cell viability assay.

TE-6 = format: functional, cell-based;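 further: growth inhibition of TE-6 cells, read out with a cell viability assay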
Description: SANGER: Inhibition of human TE-6 cell growth in a cell viability assay.

NH-12 = format: functional, cell-based;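 further: growth inhibition of NH-12 cells, read out with a cell viability assay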
Description: SANGER: Inhibition of human NH-12 cell growth in a cell viability assay.

L-428 = format: functional, cell-based
Description: SANGER: Inhibition of human L-428 cell growth in a cell viability assay.

TE-10 = format: functional, cell-based;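 further: growth inhibition of TE-10 cells, measured by a cell viability assay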
Description: SANGER: Inhibition of human TE-10 cell growth in a cell viability assay.

A388 = format: functional, cell-based;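 further: growth inhibition of human A388 cells, read out with a cell viability assay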
Description: SANGER: Inhibition of human A388 cell growth in a cell viability assay.

LU-134-A = format: functional, cell-based
Description: SANGER: Inhibition of human LU-134-A cell growth in a cell viability assay.

EW-16 = format: functional, cell-based;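 further: growth inhibition of human EW-16 cells, read out as cell viability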
Description: SANGER: Inhibition of human EW-16 cell growth in a cell viability assay.

ES4 = format: functional, cell-based;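 further: growth inhibition of human ES4 cells, read out by a cell viability assay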
Description: SANGER: Inhibition of human ES4 cell growth in a cell viability assay.

Becker = format: functional, cell-based;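 further: growth inhibition of Becker cells, read out with a cell viability assay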
Description: SANGER: Inhibition of human Becker cell growth in a cell viability assay.

MOLT-16 = format: functional, cell-based;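 further: growth inhibition of human MOLT-16 cells, read out with a cell viability assay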
Description: SANGER: Inhibition of human MOLT-16 cell growth in a cell viability assay.

HL-60 = format: functional, cell-based;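 further: growth inhibition of human HL-60 cells, read out with a cell viability assay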
Description: SANGER: Inhibition of human HL-60 cell growth in a cell viability assay.

GI-ME-N = format: functional, cell-based;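 further: growth inhibition of human GI-ME-N cells, read out with a cell viability assay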
Description: SANGER: Inhibition of human GI-ME-N cell growth in a cell viability assay.

HT-144 = format: functional, cell-based
Description: SANGER: Inhibition of human HT-144 cell growth in a cell viability assay.

Ramos-2G6-4C10 = format: functional, cell-based;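 further: growth inhibition of the cell line, measured by a cell viability read-out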
Description: SANGER: Inhibition of human Ramos-2G6-4C10 cell growth in a cell viability assay.

NCI-H209 = format: functional, cell-based;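 further: growth inhibition of human NCI-H209 cells, measured by a cell viability assay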
Description: SANGER: Inhibition of human NCI-H209 cell growth in a cell viability assay.

KMOE-2 = format: functional, cell-based;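 further: growth inhibition of human KMOE-2 cells, read out with a cell viability assay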
Description: SANGER: Inhibition of human KMOE-2 cell growth in a cell viability assay.

KLE = format: functional, cell-based;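 further: growth inhibition of human KLE cells, read out with a cell viability assay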
Description: SANGER: Inhibition of human KLE cell growth in a cell viability assay.

MC116 = format: functional, cell-based;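 further: growth inhibition of MC116 cells, read out with a cell viability assay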
Description: SANGER: Inhibition of human MC116 cell growth in a cell viability assay.

TGBC24TKB = format: functional, cell-based;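 further: growth inhibition of human TGBC24TKB cells, read out with a cell viability assay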
Description: SANGER: Inhibition of human TGBC24TKB cell growth in a cell viability assay.

NB10 = format: functional, cell-based;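 further: growth inhibition of NB10 cells, read out by a cell viability assay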
Description: SANGER: Inhibition of human NB10 cell growth in a cell viability assay.

COLO-320-HSR = format: functional, cell-based;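 further: growth inhibition of COLO-320-HSR cells, determined with a cell viability assay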
Description: SANGER: Inhibition of human COLO-320-HSR cell growth in a cell viability assay.

SK-N-FI = format: functional, cell-based;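 further: cell viability assay measuring growth inhibition of human SK-N-FI cells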
Description: SANGER: Inhibition of human SK-N-FI cell growth in a cell viability assay.

A101D = format: functional, cell-based;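 further: growth inhibition of the cell line, measured with a viability assay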
Description: SANGER: Inhibition of human A101D cell growth in a cell viability assay.

SK-NEP-1 = format: functional, cell-based;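 further: growth inhibition of human SK-NEP-1 cells, read out by a cell viability assay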
Description: SANGER: Inhibition of human SK-NEP-1 cell growth in a cell viability assay.

SF-539 = format: functional, cell-based;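 further: Read-out is a cell viability assay, with IC50 reflecting inhibition of cell growth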
Description: SANGER: Inhibition of human SF539 cell growth in a cell viability assay.

RKO = format: functional, cell-based;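 further: growth inhibition of human RKO cells, read out with a cell viability assay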
Description: SANGER: Inhibition of human RKO cell growth in a cell viability assay.

EW-1 = format: functional, cell-based
Description: SANGER: Inhibition of human EW-1 cell growth in a cell viability assay.

NCI-H1304 = format: functional, cell-based;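 further: growth inhibition of the cancer cell line, measured in a cell viability assay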
Description: SANGER: Inhibition of human NCI-H1304 cell growth in a cell viability assay.

L-363 = format: functional, cell-based
Description: SANGER: Inhibition of human L-363 cell growth in a cell viability assay.

U-87 MG = format: functional, cell-based, U-87MG ATCC;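 further: growth inhibition of the cells measured with a viability assay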
Description: SANGER: Inhibition of human U-87-MG cell growth in a cell viability assay.

OVCAR-4 = format: functional, cell-based;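 further: growth inhibition of human OVCAR-4 cells, measured with a cell viability assay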
Description: SANGER: Inhibition of human OVCAR-4 cell growth in a cell viability assay.

DMS-114 = format: functional, cell-based
EW-13 = format: functional, cell-based;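 further: growth inhibition of EW-13 cells, read out with a cell viability assay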
Description: SANGER: Inhibition of human EW-13 cell growth in a cell viability assay.

IA-LM = format: functional, cell-based;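 further: cell viability assay measuring growth inhibition of human IA-LM cells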
Description: SANGER: Inhibition of human IA-LM cell growth in a cell viability assay.

DOHH-2 = format: functional, cell-based;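 further: growth inhibition of human DOHH-2 cells, read out with a cell viability assay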
Description: SANGER: Inhibition of human DOHH-2 cell growth in a cell viability assay.

MZ2-MEL = format: functional, cell-based;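 further: growth inhibition of MZ2-MEL cells read out with a cell viability assay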
Description: SANGER: Inhibition of human MZ2-MEL cell growth in a cell viability assay.

GI-1 = format: functional, cell-based;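 further: growth inhibition of human GI-1 cells, measured with a cell viability readout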
Description: SANGER: Inhibition of human GI-1 cell growth in a cell viability assay.

MZ1-PC = format: functional, cell-based;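 further: cell viability assay measuring growth inhibition of human MZ1-PC cells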
Description: SANGER: Inhibition of human MZ1-PC cell growth in a cell viability assay.

MZ7-mel = format: functional, cell-based;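 further: growth inhibition of human MZ7-mel cells, measured by a cell viability assay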
Description: SANGER: Inhibition of human MZ7-mel cell growth in a cell viability assay.

MMAC-SF = format: functional, cell-based;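 further: growth inhibition of human MMAC-SF cells, read out with a cell viability assay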
Description: SANGER: Inhibition of human MMAC-SF cell growth in a cell viability assay.

EW-18 = format: functional, cell-based;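 further: growth inhibition of EW-18 cells, read out by a cell viability assay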
Description: SANGER: Inhibition of human EW-18 cell growth in a cell viability assay.

JVM-3 = format: functional, cell-based;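 further: growth inhibition of human JVM-3 cells, read out with a cell viability assay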
Description: SANGER: Inhibition of human JVM-3 cell growth in a cell viability assay.

NCI-H526 = format: functional, cell-based;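 further: growth inhibition of the human NCI-H526 cell line, measured by a cell viability assay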
Description: SANGER: Inhibition of human NCI-H526 cell growth in a cell viability assay.

SJSA-1 = format: functional, cell-based;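 further: growth inhibition of human SJSA-1 cells, read out through a cell viability measurement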
Description: SANGER: Inhibition of human SJSA-1 cell growth in a cell viability assay.

ATN-1 = format: functional, cell-based
Description: SANGER: Inhibition of human ATN-1 cell growth in a cell viability assay.

BB30-HNC = format: functional, cell-based
Description: SANGER: Inhibition of human BB30-HNC cell growth in a cell viability assay.

DEL = format: functional, cell-based
Description: SANGER: Inhibition of human DEL cell growth in a cell viability assay.

EKVX = format: functional, cell-based
Description: SANGER: Inhibition of human EKVX cell growth in a cell viability assay.

SK-MEL-1 = format: functional, cell-based
Description: SANGER: Inhibition of human SK-MEL-1 cell growth in a cell viability assay.

KP-N-YS = format: functional, cell-based
Description: SANGER: Inhibition of human KP-N-YS cell growth in a cell viability assay.

NCI-H1581 = format: functional, cell-based
Description: SANGER: Inhibition of human NCI-H1581 cell growth in a cell viability assay.

NCI-H1395 = format: functional, cell-based
Description: SANGER: Inhibition of human NCI-H1395 cell growth in a cell viability assay.

Mo = format: functional, cell-based
Description: SANGER: Inhibition of human Mo-T cell growth in a cell viability assay.

HDLM-2 = format: functional, cell-based
Description: SANGER: Inhibition of human HDLM-2 cell growth in a cell viability assay.

KARPAS-45 = format: functional, cell-based
Description: SANGER: Inhibition of human KARPAS-45 cell growth in a cell viability assay.

C[C@]1(c2nc3c(C(N)=O)cccc3[nH]2)CCCN1 [VELIPARIB]
IC50 (UACC-257): > 5 µM
IC50 (SK-PN-DW): > 5 µM
IC50 (CAS-1): > 5 µM
IC50 (MHH-NB-11): > 5 µM
IC50 (LAMA-84): > 5 µM
IC50 (SNU-5): 3.13 µM
IC50 (NB69): > 5 µM
IC50 (MEG-01): > 5 µM
IC50 (ONS-76): > 5 µM
IC50 (NCI-H747): > 5 µM
IC50 (HCC1187): > 5 µM
IC50 (TE-6): > 5 µM
IC50 (NH-12): > 5 µM
IC50 (L-428): > 5 µM
IC50 (TE-10): > 5 µM
IC50 (A388): > 5 µM
IC50 (LU-134-A): > 5 µM
IC50 (EW-16): > 5 µM
IC50 (ES4): > 5 µM
IC50 (Becker): > 5 µM
IC50 (MOLT-16): > 5 µM
IC50 (HL-60): > 5 µM
IC50 (GI-ME-N): > 5 µM
IC50 (HT-144): > 5 µM
IC50 (Ramos-2G6-4C10): > 5 µM
IC50 (NCI-H209): > 5 µM
IC50 (KMOE-2): > 5 µM
IC50 (KLE): > 5 µM
IC50 (MC116): > 5 µM
IC50 (TGBC24TKB): > 5 µM
IC50 (NB10): > 5 µM
IC50 (COLO-320-HSR): > 5 µM
IC50 (SK-N-FI): > 5 µM
IC50 (A101D): > 5 µM
IC50 (SK-NEP-1): > 5 µM
IC50 (SF-539): > 5 µM
IC50 (RKO): > 5 µM
IC50 (EW-1): > 5 µM
IC50 (NCI-H1304): > 5 µM
IC50 (L-363): > 5 µM
IC50 (U-87 MG): > 5 µM
IC50 (OVCAR-4): > 5 µM
IC50 (DMS-114): > 5 µM
IC50 (EW-13): > 5 µM
IC50 (IA-LM): > 5 µM
IC50 (DOHH-2): > 5 µM
IC50 (MZ2-MEL): > 5 µM
IC50 (GI-1): > 5 µM
IC50 (MZ1-PC): > 5 µM
IC50 (MZ7-mel): > 5 µM
IC50 (MMAC-SF): > 5 µM
IC50 (EW-18): > 5 µM
IC50 (JVM-3): > 5 µM
IC50 (NCI-H526): > 5 µM
IC50 (SJSA-1): > 5 µM
IC50 (ATN-1): > 5 µM
IC50 (BB30-HNC): > 5 µM
IC50 (DEL): > 5 µM
IC50 (EKVX): > 5 µM
IC50 (SK-MEL-1): > 5 µM
IC50 (KP-N-YS): > 5 µM
IC50 (NCI-H1581): > 5 µM
IC50 (NCI-H1395): > 5 µM
IC50 (Mo): > 5 µM
IC50 (HDLM-2): > 5 µM
IC50 (KARPAS-45): > 5 µM

Source: ChEMBL document CHEMBL1201861, “Genomics of Drug Sensitity in Cancer screening data, Wellcome Trust Sanger Institute”
